In US9040713B2, “Methods of managing blood sugar levels and compositions related thereto” (EMORY UNIVERSITY, priority 2010, dated 2015):

Assays:
IGF-1R = IGF-1R phosphorylation in cells (immunoblotting); format: cell-based
Method: (A) DDN and CSN activate IR and its downstream signaling in CHO-IR cells. […] The cell lysates were analyzed by immunoblotting with anti-phospho-IR antibodies, or immunoprecipitated by PY20 and analyzed using anti-IR and anti-IRS-1, respectively. (B) DDN and CSN induce IR phosphorylation in a dose-dependent manner. CHO-IR cells were treated with the small compounds at different concentrations for 15 min, and the IR phosphorylation was monitored by immunoprecipitation and immunoblotting. (C) DDN, CSN induce IR phosphorylation in a time-dependent manner. […] (D) DDN and CSN induce IR phosphorylation and its downstream signaling in a dose-dependent manner. […] (E) DDN and CSN cannot induce IGF-1R or EGFR phosphorylation. CHO-IGF-1R or HEK293 cells were treated with EGF (100 nM), IGF-1 (100 nM), DDN (10 μM) or CSN (10 μM) for 15 min. The cell lysates were analyzed by immunoblotting with anti-pIGF-1R and anti-pEGFR.
(A) Chemical structure of 4524-E7. (B) Effect of 4524-E7 and other 1,4-naphthoquinone derivatives on IR phosphorylation in CHO-IR cells. CHO-IR cells were cultured in 96-well plates and treated with 5 μM compounds for 15 min at 37 C. Cells were lysed, and IR phosphorylations were tested by ELISA. The IR phosphorylation activities of the tested compounds were expressed as a percentage of the vehicle. (C) 4524-E7 and 1,4-naphthoquinone derivates activate IR and its downstream signaling in CHO-IR cells. […] The cell lysates were analyzed by immunoblotting with various indicated antibodies. The phosphorylated IR was immunoprecipitated using PY20 and analyzed by immunoblotting with anti-IR13 antibody. […] The phosphorylation of each receptor was determined by Western blot using specific antibodies as indicated. (E) 4524-E7 activates IR through its ICD. Upper panel: Diagram of chimaeric receptors. Lower panel: His-tagged wild-type IR, IGFR-IR, IR-IGFR, and IR-EGFR constructs were transfected into CHO cells followed vehicle or 5 μM 4524-E7 treatment for 30 min. Then the cells were lysated and the transfected receptor fused to His tag were pulled down with Ni+ beads, followed by western blot against anti-p-Tyr and anti-His. The cell lysates were tested with anti-p-Akt and anti-Akt.
A cell-based ELISA assay was developed with an IR stably transfected Chinese Hamster Ovary (CHO-IR) cell line. The cells were seeded in a 96-well plate and treated with 10 μM (15 min) compounds. The cell lysates were subjected to the sandwich ELISA using immobilized anti-phosphotyrosine antibody and anti-IR antibody. […] Among the positive hits, 1,4-naphthoquinone compounds were identified that can selectively activate IR but not IGF-1R (FIG. 1A). […] Total IR tyrosine phosphorylation was further confirmed by immunoprecipitation using anti-phosphotyrosine (PY20) antibody (FIG. 2A, 3rd panel). […]

IR = IR (Homo sapiens, UniProt P06213); experiment: Insulin competition assay (FITC-insulin, flow cytometry); format: binding; design: expressed in transfected cells; host or cells: CHO (CHO-IR, gift from Dr. Nicholas Webster, UCSD); conditions: CHO-IR cells
Sequence of IR (P06213 763-1382 limits assumed): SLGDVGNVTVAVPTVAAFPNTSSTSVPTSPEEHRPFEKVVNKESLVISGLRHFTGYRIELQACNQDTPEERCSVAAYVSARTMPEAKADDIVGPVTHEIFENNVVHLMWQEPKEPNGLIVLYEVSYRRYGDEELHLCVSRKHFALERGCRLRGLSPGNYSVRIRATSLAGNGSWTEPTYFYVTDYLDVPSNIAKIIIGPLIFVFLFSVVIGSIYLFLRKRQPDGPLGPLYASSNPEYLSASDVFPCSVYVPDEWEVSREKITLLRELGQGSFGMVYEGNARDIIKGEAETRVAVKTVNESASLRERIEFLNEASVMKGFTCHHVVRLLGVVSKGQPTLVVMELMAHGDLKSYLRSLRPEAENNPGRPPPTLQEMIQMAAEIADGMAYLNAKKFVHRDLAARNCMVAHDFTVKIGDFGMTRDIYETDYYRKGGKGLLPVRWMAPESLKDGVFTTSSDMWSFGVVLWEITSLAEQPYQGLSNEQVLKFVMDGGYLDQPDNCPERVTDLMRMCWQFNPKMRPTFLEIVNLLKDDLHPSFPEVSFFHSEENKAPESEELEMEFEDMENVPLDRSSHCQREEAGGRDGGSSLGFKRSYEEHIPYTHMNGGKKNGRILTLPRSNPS
Sequence of IR (P06213 28-758 limits assumed): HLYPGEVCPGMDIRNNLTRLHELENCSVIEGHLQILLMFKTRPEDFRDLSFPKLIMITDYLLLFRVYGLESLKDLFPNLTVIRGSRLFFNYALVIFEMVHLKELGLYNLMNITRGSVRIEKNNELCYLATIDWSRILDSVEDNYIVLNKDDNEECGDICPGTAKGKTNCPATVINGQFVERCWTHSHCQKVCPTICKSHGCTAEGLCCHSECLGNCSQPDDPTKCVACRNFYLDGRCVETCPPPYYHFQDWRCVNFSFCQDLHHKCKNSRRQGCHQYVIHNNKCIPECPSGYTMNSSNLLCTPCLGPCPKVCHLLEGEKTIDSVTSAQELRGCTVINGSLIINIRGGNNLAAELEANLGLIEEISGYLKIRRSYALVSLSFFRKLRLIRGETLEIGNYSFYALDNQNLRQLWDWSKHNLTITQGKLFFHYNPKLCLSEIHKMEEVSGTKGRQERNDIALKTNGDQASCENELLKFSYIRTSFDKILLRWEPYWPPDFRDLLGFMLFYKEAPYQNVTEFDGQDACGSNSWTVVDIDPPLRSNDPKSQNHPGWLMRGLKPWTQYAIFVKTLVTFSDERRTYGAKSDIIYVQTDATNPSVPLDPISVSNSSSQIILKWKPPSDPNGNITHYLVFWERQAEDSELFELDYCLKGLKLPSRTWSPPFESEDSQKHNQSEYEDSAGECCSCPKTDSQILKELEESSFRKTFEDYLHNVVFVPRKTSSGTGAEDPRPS
Method: Cells were washed three times, acquired on a FACScan, and the mean channel fluorescence (MCF) of bell-shaped histograms was analyzed using the CellQuest program.
Cells were washed three times, acquired on a FACScan, and the mean channel fluorescence (MCF) of bell-shaped histograms was analyzed using the FlowJ program.

3T3-L1 adipocytes = experiment: Fatty acid oxidation assay; format: cell-based, mouse; conditions: 100 nM insulin or 5 μM 4524-E7; normalized to DMSO-treated cells
Method: (A) 4524-E7 activates IR phosphorylation and its downstream signaling in 3T3-L1 adipocytes. […] The cells were lysed, and immunoprecipitated with PY20, and followed by Western blot using specific antibodies. (B) 4524-E7 stimulates glucose uptake in 3T3-L1 adipocytes. […] [3H]2-deoxyglucose was added, and the cells were further incubated for 10 min. The amount of [3H]2-deoxyglucose taken by adipocytes was measured. (C) 4524-E7 inhibits fatty acid oxidation. […] Results were normalized to DMSO-treated cells and expressed as mean±S.E.M. (*: P<0.05; **:P<0.01, Student's t-test, n=3). (D) IR knockdown in adipocytes decreases IR signaling by 4524-E7. […] Cells lysates were collected and analyzed by Western blot. (E) The glucose uptake induced by 4524-E7 in p85α knockout MEF cells. […] The uptaken [3H] 2-deoxyglucose was monitored by liquid scintillation counter. Results were expressed as mean±S.E.M. (*: P<0.05; **:P<0.01, Student's t-test, n=3).
Fatty acid oxidation was measured by determining the production of 3H2O from [9, 10-3H] palmitate. Differentiated NIH3T3-L1 were plated (0.5×10^5 cell per well) in a 12-well plate for 1 day. […] After incubation, the medium was removed and extracted with Chloroform/Methanol (2:1), and the aqueous phase containing 3H2O was collected and used for radioactivity measurement in a liquid scintillation counter.

In the case of O=C1c2ccccc2C(=O)C2SC(Nc3ccc(Cl)cc3)=NC12 (stereo not shown) [4524-E7, 2-((4-chlorophenyl)amino)naphtho[2,3-d]thiazole-4,9(3aH,9aH)-dione], the IGF-1R activation (IGF-1R; IGF-1R-transfected HEK293 cells, 5 μM) is reported as “not any other RTKs”, the IGF-1R activation (IGF-1R; differentiated 3T3-L1 adipocytes) is reported as “neither IGF-1R nor EGFR was activated” and the “competition with FITC-insulin for IR binding (shift of fluorescent peak)” value (IR; 10 nM FITC-insulin, unlabelled insulin 1 μM) is reported as “no significant change of the shifted peak position”. The lipid oxidation (3T3-L1 adipocytes) was ~50 % of the control.
In the case of CC(=O)Oc1ccc(OC(C)=O)c2c1C(=O)C(Cl)=C(Cl)C2=O [DDN, 5,8-diacetyloxy-2,3-dichloro-1,4-naphthoquinone], the IGF-1R activation (IGF-1R; CHO-IGF-1R cells, 10 μM, 15 min) is reported as “Neither IGF-1R nor EGFR was activated” and the “competition with FITC-insulin for IR binding (shift of fluorescent peak)” value (IR; 100 nM FITC-insulin, unlabelled insulin 5 μM) is reported as “No significant change of the shifted peak position”.
With “insulin: insulin, used as positive control” the lipid oxidation (3T3-L1 adipocytes) was ~70 % of the control.
